Reference: article PMC6376154 (International Journal for Parasitology: Drugs and Drug …, 2019)
Where two headings read alike, the source gives them in different places.

Tests used:
[1] = tested on: P. falciparum 3D7 asexual blood stage; settings: cited from earlier work
[2] = tested on: F100TpM, a bovine lymphocyte cell line infected by T. parva; assay: 3H-thymidine incorporation growth assay on F100TpM cells (screen at 1 μM and IC50 titration);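 further: growth inhibition compared against wells lacking compound, run in triplicate, and CC50 derived from 3H-thymidine uptake by PBMC stimulated with ConA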; settings: read-out: IC50 (μM) F100TpM; T. parva infected lymphocyte cell line, 48 h compound, 3H-thymidine incorporation
Description: All the MMV compounds were initially tested for inhibitory activity on the growth of F100TpM, a bovine lymphocyte cell line infected by T. parva. […] All compounds were tested in triplicate.
The radiolabeled precursor ^3H-thymidine is incorporated into DNA strands during cell replication and radioisotope incorporation is often used as a measure of cell proliferation.
IC50 values were calculated using the Graph Pad Prism 7 software (GraphPad Software, Inc., La Jolla, CA), and average values of radio-isotope incorporation in wells with and without compound on the growth of F100TpM cells. The CC50 values were calculated using ^3H-thymidine incorporation values determined on the growth of PBMC stimulated with ConA. The therapeutic index of a compound was calculated by dividing the CC50 value with the IC50 value.

[3] = MMV Malaria Box data sheet (supplement mmc2.xls), ref MMV data sheet
[4] = value(s) per source (GSK, GNF, StJude), separated by semicolon, ref ChEMBL-NTD, read-out: CHEMBL EC50
[5] = MMV Malaria Box data sheet, ref MMV data sheets
[6] = MMV Malaria Box data sheet, ref MMV data sheets, read-out: EC50_nM
[7] = source GSK, ref ChEMBL_NTD, read-out: CHEMBL EC50
[8] = ChEMBL-NTD value per source (GNF, GSK, StJude), several values in a cell follow the order of the sources, read-out: CHEMBL EC50
[9] = MMV Malaria Box data sheet (supplement mmc2.xls), ref MMV data sheet, read-out: EC50_nM
[10] = MMV Malaria Box sheet, ref MMV data sheets
[11] = source StJude, ref ChEMBL_NTD, read-out: CHEMBL EC50
[12] = MMV Malaria Box sheet, ref MMV data sheets, read-out: EC50_nM
[13] = source GNF, ref ChEMBL_NTD, read-out: CHEMBL EC50

## CN(C)c1ccc(-c2nc3cc(N)ccc3[nH]2)cc1 [MMV666102]
[1]; [3]
  percent_inh @ 5 uM: 64%
[1]; [4]
  EC50: 0.239 µM

## CCn1c(SCC(=O)Nc2cc(C(F)(F)F)ccc2Cl)nc2ccccc2c1=O [MMV666103]
[1]; [5]
  percent_inh @ 5 uM: 91%
[1]; [6]
  EC50: 1 µM
[1]; [7]
  EC50: 0.397 µM

## COCCN(C(=O)Cc1cccs1)C(C(=O)NCc1ccc(OC)cc1)c1ccc(C(C)C)cc1 (centres unmarked) [MMV666105]
[1]; [5]
  percent_inh @ 5 uM: 92%
[1]; [6]
  EC50: 1.19 µM
[1]; [7]
  EC50: 0.845 µM

## O=C(NC1CCCCC1)C(c1cccs1)N(CCc1ccccc1)C(=O)c1ccco1 (centres unmarked) [MMV666106]
[1]; [8]
  EC50: 1.04 µM

## O=C(CCc1ccco1)NC1CCN(CC2(c3ccc(Cl)cc3)CCC2)CC1 [MMV666108]
[1]; [3]
  percent_inh @ 5 uM: 96%
[1]; [9]
  EC50: 1.14 µM
[1]; [4]
  EC50: 1.45 µM

## CCOC(=O)C1(Cc2ccccc2)CCN(Cc2cccc(OC)c2O)CC1 [MMV666109]
[1]; [10]
  percent_inh @ 5 uM: 95%
[1]; [11]
  EC50: 2.29 µM

## C=C(C)CCC(C)N1CCC(N2CCC(C(=O)NCCc3ccccc3)CC2)CC1 (centres unmarked) [MMV666110]
[1]; [3]
  percent_inh @ 5 uM: 96%
[1]; [9]
  EC50: 1.75 µM
[1]; [4]
  EC50: 4.26 µM

## Oc1ccccc1CN1CCC2(CCCN(Cc3ccccc3F)C2)C1 (centres unmarked) [MMV666116]
[1]; [3]
  percent_inh @ 5 uM: 98%
[1]; [9]
  EC50: 0.548 µM
[1]; [4]
  EC50: 0.679 µM

## CC(C)(C)c1ccc(C(=O)Nc2c3c(nn2-c2cccc(Cl)c2)CSC3)cc1 [MMV666123]
[1]; [10]
  percent_inh @ 5 uM: 93%
[1]; [11]
  EC50: 15 µM

## CC1=C(CC(=O)c2cccc([N+](=O)[O-])c2)C(=O)c2ccccc2C1=O [MMV666125]
[1]; [10]
  percent_inh @ 5 uM: 95%
[1]; [12]
  EC50: 0.381 µM
[1]; [13]
  EC50: 2.84 µM

## CSC1=NC(=Nc2c(C)cccc2C)C2(CCC(C(C)(C)C)CC2)N1c1ccc(Cl)cc1 (centres unmarked) [MMV666596]
[1]; [5]
  percent_inh @ 5 uM: 96%
[1]; [6]
  EC50: 0.135 µM
[1]; [13]
  EC50: 1.48 µM

## CCCCCCc1cc2cc(-c3nc4ccccc4[nH]3)c(=Nc3ccccc3C)oc2cc1O [MMV666597]
[1]; [8]
  EC50: 2.12 µM

## O=c1nc(C=Cc2ccc(Br)cc2)oc2ccccc12 [MMV666599]
[1]; [10]
  percent_inh @ 5 uM: 94%
[1]; [7]
  EC50: 1.05 µM

## CCOC(=O)c1c(C)n(-c2ccc(Cl)cc2)c2ccc(OC(=O)C=Cc3ccccc3)cc12 [MMV666600]
[1]; [5]
  percent_inh @ 5 uM: 97%
[1]; [6]
  EC50: 0.215 µM
[1]; [7]
  EC50: 0.698 µM

## CCOC(=O)C1=C(c2ccccc2)N=c2sc(=Cc3cc(C)n(-c4ccc(F)cc4)c3C)c(=O)n2C1c1cccc(OC)c1OC (centres unmarked) [MMV666601]
[1]; [5]
  percent_inh @ 5 uM: 94%
[1]; [6]
  EC50: 0.154 µM
[1]; [13]
  EC50: 2.33 µM

## CCOC(=O)C1=C(C)N=c2sc(=Cc3ccccc3O)c(=O)n2C1c1ccc(OC)c2ccccc12 (centres unmarked) [MMV666604]
[1]; [10]
  percent_inh @ 5 uM: 97%
[1]; [12]
  EC50: 1.51 µM
[1]; [7]
  EC50: 1.26 µM

## O=[N+]([O-])c1ccc(C=NNc2nc3ccccc3[nH]2)cc1 [MMV666607]
[1]; [5]
  percent_inh @ 5 uM: 99%
[1]; [6]
  EC50: 0.142 µM
[1]; [13]
  EC50: 0.818 µM
[1]; [7]
  EC50: 0.283 µM

## COc1ccccc1C(=O)ON=C(N)Cc1cccc2ccccc12 [MMV666686]
[1]; [8]
  EC50: 0.352 µM

## COc1cc(C(=O)ON=C(N)Cc2cccc3ccccc23)cc(OC)c1OC [MMV666687]
[1]; [8]
  EC50: 0.28 µM

## Cc1cc(C=C2SC(=Nc3ccccc3)N(C3CCCC3)C2=O)c(C)n1-c1ccc(Cl)cc1 [MMV666688]
[1]; [5]
  percent_inh @ 5 uM: 97%
[1]; [6]
  EC50: 0.263 µM
[1]; [7]
  EC50: 0.876 µM

## COc1ccc(Nc2nc(NN=Cc3ccc(O)cc3)nc(Nc3ccc([N+](=O)[O-])cc3)n2)cc1 [MMV666689]
[1]; [8]
  EC50: 1.12 µM

## COc1ccc(C=C2SC(=N)N(c3ccccc3OC)C2=O)cc1 [MMV666691]
[1]; [5]
  percent_inh @ 5 uM: 97%
[1]; [6]
  EC50: 0.168 µM
[1]; [7]
  EC50: 0.3 µM

## CCCCCCc1cc2cc(-c3csc(C=Cc4ccccc4)n3)c(=O)oc2cc1O [MMV666692]
[1]; [8]
  EC50: 0.97 µM

## COc1cccc(C=Cc2nc(=O)c3ccccc3o2)c1OC [MMV666693]
[1]; [5]
  percent_inh @ 5 uM: 96%
[1]; [6]
  EC50: 0.0238 µM
[1]; [7]
  EC50: 0.0644 µM

## CN(C)c1ccc(N2C(N)=NC(N)=NC2(C)C)cc1 [MMV667487]
[1]; 2 uM, MMV Malaria Box sheet, ref MMV data sheets
  percent_inh @ 2 uM: 95%
[1]; [13]
  EC50: 0.0188 µM
[1]; [11]
  EC50: 0.0728 µM

## COc1ccc(CCn2c(=N)c(C(=O)NCc3cccnc3)cc3c(=O)n4cccc(C)c4nc32)cc1 [MMV667488]
[1]; [8]
  EC50: 1.4 µM

## O=C(Nc1ccc(F)c(-c2nc3ncc(-c4ccccc4)cc3[nH]2)c1)N1CCCC1 [MMV688372]
[2]
  IC50: 0.61 µM
